For the test, the target named is Beta-3 Adrenergic Receptor (Homo sapiens (Human), UniProt P13945). Nature of the test: HTRF cAMP antagonist assay (IC50 determination). The test is classed as cell-based. As to conditions: CHO-K1 cells stably expressing recombinant receptor; antagonism of isoproterenol at EC90; cAMP readout. The procedure, abridged:
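CHO-K1 cells stably expressing the recombinant receptor were preincubated with compound (10-point, 5-fold dilutions; top final typically 10 or 100 μM) in PBS with 1 mM IBMX, then stimulated with isoproterenol at its EC90 for 1 h at room temperature. cAMP was read by HTRF against an on-plate standard curve.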

Chain of Beta-3 Adrenergic Receptor (P13945 whole entry, species assumed): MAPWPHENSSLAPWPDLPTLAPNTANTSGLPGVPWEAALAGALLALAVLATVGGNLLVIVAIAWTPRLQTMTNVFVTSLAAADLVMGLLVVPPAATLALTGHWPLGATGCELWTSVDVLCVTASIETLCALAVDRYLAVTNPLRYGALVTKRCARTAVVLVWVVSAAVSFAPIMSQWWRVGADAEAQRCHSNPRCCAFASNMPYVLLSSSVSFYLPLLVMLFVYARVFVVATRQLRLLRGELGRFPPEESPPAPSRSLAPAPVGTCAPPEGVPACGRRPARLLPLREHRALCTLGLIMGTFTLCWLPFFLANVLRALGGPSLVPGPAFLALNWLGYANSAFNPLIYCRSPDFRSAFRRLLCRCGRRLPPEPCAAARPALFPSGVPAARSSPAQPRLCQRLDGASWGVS

Usually IC50 stands for the concentration needed to halve the response being measured. In the case of `CS(=O)(=O)c1cccc(OC[C@@H](O)CNC2COC3(CCN(S(=O)(=O)c4cccc(C(F)(F)F)c4)CC3)C2)c1` (stereo partly drawn) [Compound 50, (2S)-1-(3-(methylsulfonyl)phenoxy)-3-(8-(3-(trifluoromethyl)phenylsulfonyl)-1-oxa-8-azaspiro[4.5]decan-3-ylamino)propan-2-ol], the IC50 is 42.2 nM. For `COc1ccc(S(=O)(=O)N2CCC3(CC2)C[C@H](NC[C@H](O)COc2cccc(S(=O)(=O)C4CC4)c2)CO3)cc1-c1ccc(C2(N)CC2)cc1` [Compound 253, (S)-1-((S)-8-(4′-(1-aminocyclopropyl)-6-methoxybiphenyl-3-ylsulfonyl)-1-oxa-8-azaspiro[4.5]decan-3-ylamino)-3-(3-(cyclopropylsulfonyl)phenoxy)propan-2-ol], the IC50 is 29.1 nM. For `O=S(=O)(CCO)c1cccc(OC[C@@H](O)CN[C@H]2COC3(CCN(S(=O)(=O)c4cccc(-c5ccncc5)c4)CC3)C2)c1` [Compound 96, (S)-1-(3-(2-hydroxyethylsulfonyl)phenoxy)-3-((R)-8-(3-(pyridin-4-yl)phenylsulfonyl)-1-oxa-8-azaspiro[4.5]decan-3-ylamino)propan-2-ol], the IC50 stood at 411 nM. As to `CN1CCOc2ccc(S(=O)(=O)N3CCC4(CC3)CC(NC[C@H](O)COc3cccc(S(C)(=O)=O)c3)CO4)cc21` (stereo partly drawn) [Compound 32, (2S)-1-(8-(4-methyl-3,4-dihydro-2H-benzo[b][1,4]oxazin-6-ylsulfonyl)-1-oxa-8-azaspiro[4.5]decan-3-ylamino)-3-(3-(methylsulfonyl)phenoxy)propan-2-ol], the IC50 is 21.1 nM.

In the case of `Cc1ccc2c(O)c(S(=O)(=O)N3CCC4(CC3)C[C@@H](NC[C@H](O)COc3cccc(S(=O)(=O)C5CC5)c3)CO4)cnc2c1` [Compound 330, 3-((R)-3-((S)-3-(3-(cyclopropylsulfonyl)phenoxy)-2-hydroxypropylamino)-1-oxa-8-azaspiro[4.5]decan-8-ylsulfonyl)-7-methylquinolin-4-ol], the IC50 is 70.1 nM. Under `CC(C)(CO)S(=O)(=O)c1cccc(OC[C@@H](O)CN[C@H]2COC3(CCN(S(=O)(=O)c4ccc5ncccc5c4)CC3)C2)c1` [Compound 109, 2-(3-((S)-2-hydroxy-3-((R)-8-(quinolin-6-ylsulfonyl)-1-oxa-8-azaspiro[4.5]decan-3-ylamino)propoxy)phenylsulfonyl)-2-methylpropan-1-ol] stands 145 nM; under `COCCCS(=O)(=O)c1cccc(OC[C@@H](O)CN[C@H]2COC3(CCN(S(=O)(=O)c4cnc5ccccc5c4)CC3)C2)c1` [Compound 149, (S)-1-(3-(3-methoxypropylsulfonyl)phenoxy)-3-((R)-8-(quinolin-3-ylsulfonyl)-1-oxa-8-azaspiro[4.5]decan-3-ylamino)propan-2-ol], 97.3 nM.
